From PubChem BioAssay (NCI)
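Here, GI50 denotes the concentration required for 50% inhibition of growth. TGI denotes the concentration required for complete inhibition of growth.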

How the values were obtained:
Test in all cases: growth of human tumour cells (NCI), 384-well format
OVCAR-4 ovarian = tested on: OVCAR-4 ovarian
NCI/ADR-RES ovarian = tested on: NCI/ADR-RES ovarian
COLO 205 colon = tested on: COLO 205 colon
HCC-2998 colon = tested on: HCC-2998 colon
IGROV1 ovarian = tested on: IGROV1 ovarian
SK-OV-3 ovarian = tested on: SK-OV-3 ovarian
786-0 renal = tested on: 786-0 renal
RPMI-8226 leukemia = tested on: RPMI-8226 leukemia
SR leukemia = tested on: SR leukemia
OVCAR-3 ovarian = tested on: OVCAR-3 ovarian
SN12C renal = tested on: SN12C renal
SF-539 CNS = tested on: SF-539 CNS
A498 renal = tested on: A498 renal
MDA-MB-435 melanoma = tested on: MDA-MB-435 melanoma
MALME-3M melanoma = tested on: MALME-3M melanoma
MDA-MB-468 breast = tested on: MDA-MB-468 breast
CAKI-1 renal = tested on: CAKI-1 renal
MDA-MB-231 breast = tested on: MDA-MB-231 breast
T-47D breast = tested on: T-47D breast
OVCAR-8 ovarian = tested on: OVCAR-8 ovarian
NCI-H322M lung = tested on: NCI-H322M lung
OVCAR-5 ovarian = tested on: OVCAR-5 ovarian
KM12 colon = tested on: KM12 colon
NCI-H23 lung = tested on: NCI-H23 lung
TK-10 renal = tested on: TK-10 renal
SNB-19 CNS = tested on: SNB-19 CNS
PC-3 prostate = tested on: PC-3 prostate
LOX IMVI melanoma = tested on: LOX IMVI melanoma

Question: With `O=C(NCCCc1cn[nH]c1)c1ccc(-c2ccncc2)c(C#Cc2ccc(F)cc2)c1` as the compound, how does the GI50 (OVCAR-4 ovarian) read?
Answer: Its GI50 is under 10 nM.

Question: And the TGI (OVCAR-4 ovarian)?
Answer: The TGI was under 10 nM.

Question: And the GI50 (NCI/ADR-RES ovarian)?
Answer: Its GI50 is under 10 nM.

Question: And the TGI (NCI/ADR-RES ovarian)?
Answer: The TGI was under 10 nM.

Question: And the GI50 (COLO 205 colon)?
Answer: The GI50 was under 10 nM.

Question: What about the TGI (COLO 205 colon) of the same compound?
Answer: The TGI was under 10 nM.

Question: What about the GI50 (HCC-2998 colon) of the same compound?
Answer: The GI50 was under 10 nM.

Question: And the TGI (HCC-2998 colon)?
Answer: The TGI was under 10 nM.

Question: And the GI50 (IGROV1 ovarian)?
Answer: The GI50 was under 10 nM.

Question: What about the TGI (IGROV1 ovarian) of the same compound?
Answer: The TGI was under 10 nM.

Question: And the GI50 (SK-OV-3 ovarian)?
Answer: The GI50 was under 10 nM.

Question: What about the TGI (SK-OV-3 ovarian) of the same compound?
Answer: Its TGI is under 10 nM.

Question: And the GI50 (786-0 renal)?
Answer: The GI50 was under 10 nM.

Question: What about the TGI (786-0 renal) of the same compound?
Answer: Its TGI is under 10 nM.

Question: What about the GI50 (RPMI-8226 leukemia) of the same compound?
Answer: Its GI50 is under 10 nM.

Question: What about the TGI (RPMI-8226 leukemia) of the same compound?
Answer: Its TGI is under 10 nM.

Question: And the GI50 (SR leukemia)?
Answer: The GI50 was under 10 nM.

Question: What about the TGI (SR leukemia) of the same compound?
Answer: The TGI was under 10 nM.

Question: What about the GI50 (OVCAR-3 ovarian) of the same compound?
Answer: Its GI50 is under 10 nM.

Question: And the TGI (OVCAR-3 ovarian)?
Answer: Its TGI is under 10 nM.

Question: And the GI50 (SN12C renal)?
Answer: Its GI50 is under 10 nM.

Question: What about the TGI (SN12C renal) of the same compound?
Answer: The TGI was under 10 nM.

Question: What about the GI50 (SF-539 CNS) of the same compound?
Answer: The GI50 was under 10 nM.

Question: And the TGI (SF-539 CNS)?
Answer: The TGI was under 10 nM.

Question: What about the GI50 (A498 renal) of the same compound?
Answer: The GI50 was under 10 nM.

Question: And the TGI (A498 renal)?
Answer: Its TGI is 252 nM.

Question: And the GI50 (MDA-MB-435 melanoma)?
Answer: The GI50 was under 10 nM.

Question: And the TGI (MDA-MB-435 melanoma)?
Answer: The TGI was under 10 nM.

Question: And the GI50 (MALME-3M melanoma)?
Answer: The GI50 was under 10 nM.

Question: And the TGI (MALME-3M melanoma)?
Answer: Its TGI is under 10 nM.

Question: And the GI50 (MDA-MB-468 breast)?
Answer: The GI50 was under 10 nM.

Question: And the TGI (MDA-MB-468 breast)?
Answer: The TGI was under 10 nM.

Question: And the GI50 (CAKI-1 renal)?
Answer: The GI50 was under 10 nM.

Question: What about the TGI (CAKI-1 renal) of the same compound?
Answer: Its TGI is under 10 nM.

Question: And the GI50 (MDA-MB-231 breast)?
Answer: Its GI50 is under 10 nM.

Question: What about the TGI (MDA-MB-231 breast) of the same compound?
Answer: The TGI was under 10 nM.

Question: What about the GI50 (T-47D breast) of the same compound?
Answer: The GI50 was under 10 nM.

Question: And the TGI (T-47D breast)?
Answer: The TGI was under 10 nM.

Question: What about the GI50 (OVCAR-8 ovarian) of the same compound?
Answer: Its GI50 is under 10 nM.

Question: And the TGI (OVCAR-8 ovarian)?
Answer: The TGI was under 10 nM.

Question: What about the GI50 (NCI-H322M lung) of the same compound?
Answer: Its GI50 is under 10 nM.

Question: And the TGI (NCI-H322M lung)?
Answer: The TGI was under 10 nM.

Question: What about the GI50 (OVCAR-5 ovarian) of the same compound?
Answer: Its GI50 is under 10 nM.

Question: What about the TGI (OVCAR-5 ovarian) of the same compound?
Answer: Its TGI is under 10 nM.

Question: What about the GI50 (KM12 colon) of the same compound?
Answer: Its GI50 is under 10 nM.

Question: And the TGI (KM12 colon)?
Answer: Its TGI is under 10 nM.

Question: And the GI50 (NCI-H23 lung)?
Answer: The GI50 was under 10 nM.

Question: What about the TGI (NCI-H23 lung) of the same compound?
Answer: The TGI was under 10 nM.

Question: What about the GI50 (TK-10 renal) of the same compound?
Answer: Its GI50 is under 10 nM.

Question: And the TGI (TK-10 renal)?
Answer: The TGI was under 10 nM.

Question: And the GI50 (SNB-19 CNS)?
Answer: The GI50 was under 10 nM.

Question: What about the TGI (SNB-19 CNS) of the same compound?
Answer: The TGI was under 10 nM.

Question: What about the GI50 (PC-3 prostate) of the same compound?
Answer: Its GI50 is under 10 nM.

Question: What about the TGI (PC-3 prostate) of the same compound?
Answer: Its TGI is under 10 nM.

Question: What about the GI50 (LOX IMVI melanoma) of the same compound?
Answer: The GI50 was under 10 nM.
